In US5827872A, “Xenomins novel heterocyclic compounds with antimicrobial and antneoplastic properties” (priority 1996, dated 1998):
Converted amounts (≈) assume the structure as drawn.

Key:
Type in all cases: cell-based
[1] = system: Candida tropicalis CBS 94; assay: MIC by standard dilution method (NCCLS 1990), Candida tropicalis CBS 94; details: CBS94, 35° C., 24 h incubation
Description: (§1) To determine minimum inhibitory concentration (MIC) of the xenomins, the standard dilution method was used as outlined by The National Committee for Clinical Laboratory Standards (1990) for testing antibiotics. The tests were coducted at 35° C. and the MICs were determined after 24 h incubation.

[2] = system: cervical cancer Hela; assay: Antineoplastic activity in vitro, method of Skehan et al. (1990), Hela; details: Homo sapiens, Hela cells
Description: (§2) The antineoplastic activities of xenomins have been determined in vitro in cell cultures of human colon cancer HT-29, breast cancer MCF-7 and cervical cancer Hela. The tests were carried out using the method described by Skehan et al. (1990).

[3] = system: human colon cancer HT-29; assay: Antineoplastic activity in vitro, method of Skehan et al. (1990), HT-29; details: HT29 cells
Description: as §2

[4] = system: Bacillus subtilis; assay: MIC by standard dilution method (NCCLS 1990), Bacillus subtilis; details: 35° C., 24 h incubation
Description: as §1

[5] = system: Cryptococcus neoformans ATCC14117; assay: MIC by standard dilution method (NCCLS 1990), Cryptococcus neoformans ATCC14117; details: 35° C., 24 h incubation
Description: as §1

[6] = system: Staphylococcus aureus ATCC 29213; assay: MIC by standard dilution method (NCCLS 1990), Staphylococcus aureus ATCC 29213; details: ATCC29213, 35° C., 24 h incubation
Description: as §1

[7] = system: S. aureus 0012; assay: MIC by standard dilution method (NCCLS 1990), S. aureus 0012 (methicillin-resistant clinical isolate); details: Staphylococcus aureus; S. aureus 0012, clinical isolate of methicillin-resistant strain; 35° C., 24 h incubation
Description: as §1
(§3) *clinical isolates of methicillinresistant strain.

[8] = system: breast cancer MCF-7; assay: Antineoplastic activity in vitro, method of Skehan et al. (1990), MCF-7; details: Homo sapiens, MCF7, MCF-7 cells
Description: as §2

[9] = system: S. aureus 0017; assay: MIC by standard dilution method (NCCLS 1990), S. aureus 0017 (methicillin-resistant clinical isolate); details: Staphylococcus aureus; S. aureus 0017, clinical isolate of methicillin-resistant strain; 35° C., 24 h incubation
Description: as §1, §3

Structure (SMILES) | MIC [1] | IC50 [2] | IC50 [3] | MIC [4] | MIC [5] | MIC [6] | MIC [7] | IC50 [8] | MIC [9]
CCCCCC(=O)Nc1c2[s+]([O-])scc-2n(C)c1=O (single isomer, unassigned) [Xenomin 1] | 100 µg/mL (≈ 333 µM) | 0.24 µg/mL (≈ 0.799 µM) | 0.14 µg/mL (≈ 0.466 µM) | 5 µg/mL (≈ 16.6 µM) | 13 µg/mL (≈ 43.3 µM) | 20 µg/mL (≈ 66.6 µM) | 10 µg/mL (≈ 33.3 µM) | 1.37 µg/mL (≈ 4.56 µM) | 10 µg/mL (≈ 33.3 µM)
CC(C)CCCC(=O)Nc1c2[s+]([O-])scc-2n(C)c1=O (single isomer, unassigned) [Xenomin 2] | > 100 µg/mL | 0.65 µg/mL (≈ 2.07 µM) | 0.34 µg/mL (≈ 1.08 µM) | 41 µg/mL (≈ 130 µM) | 25 µg/mL (≈ 79.5 µM) | 41 µg/mL (≈ 130 µM) | 41 µg/mL (≈ 130 µM) | 1.74 µg/mL (≈ 5.53 µM) | 41 µg/mL (≈ 130 µM)
